PubChem BioAssay AID1963827 (Molecular Pharmacology Branch, DTP, NCI, 2024)

Tested on: 994946-033-R-J1-PDC complex spheroid viability
Experiment: Anticancer human tumor 994946-033-R-J1-PDC patient-derived melanoma cell line growth inhibition [POLQ]
Settings: for IC50: curve of first compound; for viability, T/C: stronger effect = lower value
Outline: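 Three-cell-type spheroids modelling solid tumor plus stroma served as the readout system; POL inhibitors were tested individually and in combination, concentration ranges set by clinical Cmax where known.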

[1] = second compound 0.0316 µM, first compound 0.00316 µM
[2] = second compound 0.0316 µM, first compound 0.01 µM
[3] = second compound 0.0316 µM, first compound 0.0316 µM
[4] = second compound 0.0316 µM, first compound 0.1 µM
[5] = second compound 0.0316 µM, first compound 0.316 µM
[6] = second compound 0.0316 µM, first compound 1 µM
[7] = second compound 0.1 µM, first compound 0.00316 µM
[8] = second compound 0.1 µM, first compound 0.01 µM
[9] = second compound 0.1 µM, first compound 0.0316 µM
[10] = second compound 0.1 µM, first compound 0.1 µM
[11] = second compound 0.1 µM, first compound 0.316 µM
[12] = second compound 0.1 µM, first compound 1 µM
[13] = second compound 0.316 µM, first compound 0.00316 µM
[14] = second compound 0.316 µM, first compound 0.01 µM
[15] = second compound 0.316 µM, first compound 0.0316 µM
[16] = second compound 0.316 µM, first compound 0.1 µM
[17] = second compound 0.316 µM, first compound 0.316 µM
[18] = second compound 0.316 µM, first compound 1 µM
[19] = second compound 1 µM, first compound 0.00316 µM
[20] = second compound 1 µM, first compound 0.01 µM
[21] = second compound 1 µM, first compound 0.0316 µM
[22] = second compound 1 µM, first compound 0.1 µM
[23] = second compound 1 µM, first compound 0.316 µM
[24] = second compound 1 µM, first compound 1 µM
[25] = second compound 3.16 µM, first compound 0.00316 µM
[26] = second compound 3.16 µM, first compound 0.01 µM
[27] = second compound 3.16 µM, first compound 0.0316 µM
[28] = second compound 3.16 µM, first compound 0.1 µM
[29] = second compound 3.16 µM, first compound 0.316 µM
[30] = second compound 3.16 µM, first compound 1 µM
[31] = second compound 10 µM, first compound 0.00316 µM
[32] = second compound 10 µM, first compound 0.01 µM
[33] = second compound 10 µM, first compound 0.0316 µM
[34] = second compound 10 µM, first compound 0.1 µM
[35] = second compound 10 µM, first compound 0.316 µM
[36] = second compound 10 µM, first compound 1 µM
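Further: spheroids exposed to drugs for 7 days.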
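Wherever viability, T/C is given: 100% = DMSO vehicle treated spheroids.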

Compound: CCc1c2c(nc3ccc(O)cc13)-c1cc3c(c(=O)n1C2)COC(=O)[C@]3(O)CC + Nc1ccc(C#CCN(C(=O)Cc2ncc(C(F)(F)F)cc2C(F)(F)F)c2ccc(F)cc2)nn1
- IC50 (second compound 0.0316 µM): < 3.16 nM
- IC50 (second compound 0.1 µM): < 3.16 nM
- IC50 (second compound 0.316 µM): < 3.16 nM
- IC50 (second compound 1 µM): < 3.16 nM
- IC50 (second compound 3.16 µM): < 3.16 nM
- IC50 (second compound 10 µM): < 3.16 nM
- viability, T/C [1]: 27%
- viability, T/C [2]: 13.4%
- viability, T/C [3]: 8.88%
- viability, T/C [4]: 5.83%
- viability, T/C [5]: 4.85%
- viability, T/C [6]: 1.91%
- viability, T/C [7]: 23.6%
- viability, T/C [8]: 11.1%
- viability, T/C [9]: 7.44%
- viability, T/C [10]: 6.7%
- viability, T/C [11]: 7.41%
- viability, T/C [12]: 2.23%
- viability, T/C [13]: 29.8%
- viability, T/C [14]: 10.9%
- viability, T/C [15]: 8.12%
- viability, T/C [16]: 7.25%
- viability, T/C [17]: 6.69%
- viability, T/C [18]: 2.59%
- viability, T/C [19]: 20.8%
- viability, T/C [20]: 12.1%
- viability, T/C [21]: 6.5%
- viability, T/C [22]: 9.5%
- viability, T/C [23]: 5.03%
- viability, T/C [24]: 2.07%
- viability, T/C [25]: 26.3%
- viability, T/C [26]: 16.2%
- viability, T/C [27]: 8.04%
- viability, T/C [28]: 6.61%
- viability, T/C [29]: 6.79%
- viability, T/C [30]: 1.91%
- viability, T/C [31]: 28%
- viability, T/C [32]: 14.1%
- viability, T/C [33]: 5.91%
- viability, T/C [34]: 7.41%
- viability, T/C [35]: 8.18%
- viability, T/C [36]: 2.64%

Compound: COc1cc(C2c3cc4c(cc3C(OC3OC5COC(C)OC5C(O)C3O)C3COC(=O)C23)OCO4)cc(OC)c1O (stereo unspecified) + COC1C(OC(N)=O)C(O)C(Oc2ccc3c(O)c(NC(=O)c4ccc(O)c(CC=C(C)C)c4)c(=O)oc3c2C)OC1(C)C
- IC50 (second compound 0.0316 µM): 690 nM
- IC50 (second compound 0.1 µM): 237 nM
- IC50 (second compound 0.316 µM): 254 nM
- IC50 (second compound 1 µM): 539 nM
- IC50 (second compound 3.16 µM): 274 nM
- IC50 (second compound 10 µM): 588 nM
- viability, T/C [3]: 77.1%
- viability, T/C [4]: 78.6%
- viability, T/C [5]: 46%
- viability, T/C [6]: 61%
- viability, T/C (second compound 0.0316 µM, first compound 3.16 µM): 12.8%
- viability, T/C (second compound 0.0316 µM, first compound 10 µM): 6.71%
- viability, T/C [9]: 95.9%
- viability, T/C [10]: 58.9%
- viability, T/C [11]: 44%
- viability, T/C [12]: 38.7%
- viability, T/C (second compound 0.1 µM, first compound 3.16 µM): 13%
- viability, T/C (second compound 0.1 µM, first compound 10 µM): 7.35%
- viability, T/C [15]: 118%
- viability, T/C [16]: 70.7%
- viability, T/C [17]: 40.2%
- viability, T/C [18]: 36.7%
- viability, T/C (second compound 0.316 µM, first compound 3.16 µM): 14.5%
- viability, T/C (second compound 0.316 µM, first compound 10 µM): 6.69%
- viability, T/C [21]: 88.3%
- viability, T/C [22]: 67.1%
- viability, T/C [23]: 63.5%
- viability, T/C [24]: 41.2%
- viability, T/C (second compound 1 µM, first compound 3.16 µM): 18.5%
- viability, T/C (second compound 1 µM, first compound 10 µM): 7.04%
- viability, T/C [27]: 109%
- viability, T/C [28]: 60.7%
- viability, T/C [29]: 53.2%
- viability, T/C [30]: 36.3%
- viability, T/C (second compound 3.16 µM, first compound 3.16 µM): 10.2%
- viability, T/C (second compound 3.16 µM, first compound 10 µM): 7.78%
- viability, T/C [33]: 111%
- viability, T/C [34]: 70.2%
- viability, T/C [35]: 57.8%
- viability, T/C [36]: 52.3%
- viability, T/C (second compound 10 µM, first compound 3.16 µM): 14.9%
- viability, T/C (second compound 10 µM, first compound 10 µM): 5.69%

Compound: CC[C@@]1(O)C(=O)OCc2c1cc1n(c2=O)Cc2cc3c(CN(C)C)c(O)ccc3nc2-1 + Cc1cccc(N(C)C(=O)C2C(O)CCN2c2nc(C)cc(C(F)(F)F)c2C#N)c1
- IC50 (second compound 0.0316 µM): 19.1 nM
- IC50 (second compound 0.1 µM): 19.1 nM
- IC50 (second compound 0.316 µM): 20.1 nM
- IC50 (second compound 1 µM): 11.2 nM
- IC50 (second compound 3.16 µM): 18.3 nM
- IC50 (second compound 10 µM): 21.1 nM
- viability, T/C (second compound 0.0316 µM, first compound 0.000316 µM): 80.5%
- viability, T/C (second compound 0.0316 µM, first compound 0.001 µM): 94%
- viability, T/C [1]: 110%
- viability, T/C [2]: 73%
- viability, T/C [3]: 30.9%
- viability, T/C [4]: 8.8%
- viability, T/C (second compound 0.1 µM, first compound 0.000316 µM): 113%
- viability, T/C (second compound 0.1 µM, first compound 0.001 µM): 78.6%
- viability, T/C [7]: 87%
- viability, T/C [8]: 78%
- viability, T/C [9]: 28.5%
- viability, T/C [10]: 9.63%
- viability, T/C (second compound 0.316 µM, first compound 0.000316 µM): 83.4%
- viability, T/C (second compound 0.316 µM, first compound 0.001 µM): 106%
- viability, T/C [13]: 94.8%
- viability, T/C [14]: 82%
- viability, T/C [15]: 29.2%
- viability, T/C [16]: 12.1%
- viability, T/C (second compound 1 µM, first compound 0.000316 µM): 108%
- viability, T/C (second compound 1 µM, first compound 0.001 µM): 71.3%
- viability, T/C [19]: 79.3%
- viability, T/C [20]: 57.5%
- viability, T/C [21]: 26.9%
- viability, T/C [22]: 9.85%
- viability, T/C (second compound 3.16 µM, first compound 0.000316 µM): 96.1%
- viability, T/C (second compound 3.16 µM, first compound 0.001 µM): 98.7%
- viability, T/C [25]: 77%
- viability, T/C [26]: 71%
- viability, T/C [27]: 33.4%
- viability, T/C [28]: 10.7%
- viability, T/C (second compound 10 µM, first compound 0.000316 µM): 113%
- viability, T/C (second compound 10 µM, first compound 0.001 µM): 99.6%
- viability, T/C [31]: 107%
- viability, T/C [32]: 81.8%
- viability, T/C [33]: 32.7%
- viability, T/C [34]: 10.4%
